Target: T1, UmAA10_cd (Mycosarcoma maydis, UniProt A0A0D1CHL0)
T1 construct: gene UMAG_05439; catalytic domain only; C-terminal extension removed between Gly203 and Gly204; C-terminal (His)6-tag; made in Pichia pastoris SuperMan5; copper loaded
Experiment: Amplex red / HRP assay of H2O2 production, absorbance at […] nm
Assay type: biochemical
Details: reductant of the LPMO oxidase reaction, 50 µM ascorbic acid with O2; 1 µM enzyme; sodium phosphate 50 mM pH 7.0; 23°C

T1 sequence (A0A0D1CHL0 33-203): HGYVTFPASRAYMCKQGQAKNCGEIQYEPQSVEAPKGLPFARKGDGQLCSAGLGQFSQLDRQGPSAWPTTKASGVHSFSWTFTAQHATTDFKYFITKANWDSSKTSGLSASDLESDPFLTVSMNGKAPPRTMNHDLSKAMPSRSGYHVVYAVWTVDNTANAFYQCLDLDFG

O=C1O[C@H]([C@@H](O)CO)C(O)=C1O [ascorbic acid]
Amplex red / HRP assay of H2O2 production, absorbance at 575 nm: Using ascorbic acid (AscA) as a reductant, we found that UmAA10_cd produces H2O2

Reference: paper PMC10617569, “The Ustilago maydis AA10 LPMO is active on fungal cell wall chitin” (Applied and Environmental Microbiology, 2023)
